Assay results: patent publication US20260015599A1, “TARGETING THE STING1 GENE BY CRISPR ACTIVATION” (AARHUS UNIVERSITET, priority 2022, published 2026)
Read-outs that look alike come from different tables or passages of the source. One block for each molecule: values may come before it.

How the values were obtained:
[1] = test system: cGAS-STING signalling pathway; assay: Stimulation of human sarcoma cell lines with cGAS, STING and RIG-I agonists, cytokine secretion; format: cell-based
Protocol: For stimulation in vitro, 30,000 or 60,000 cells were seeded per well in a 24-well plate one day prior to stimulation. Cells were stimulated by transfection using Lipofectamine 2000 transfection reagent (Invitrogen, Cat#: 11668019) combined with the following agents: 2 μg/mL HT-DNA (Sigma-Aldrich, Cat#: D6898), 8 μg/mL 2′3′-cGAMP (Invivogen, Cat#: tlrl-nacga23-5), and 40 ng/ml Poly(I:C)-LMW (Invivogen, Cat#: tlrl-picw). An untreated control and a lipofectamine 2000 control were included. All samples were run in biological duplicates or triplicates. […]
Supernatants from cells stimulated with HT-DNA and Poly(I:C) were analyzed for Interferonβ (IFNβ), CXCL10 and IL-6 using Meso Scale Discovery multiplex Enzyme-linked Immunosorbent assay.
Supernatants from cells stimulated with 2′3′-cGAMP were analyzed for CXCL10 and IL-6 using sandwich ELISA (RnD Systems, Cat#: DY299 and Cat#: DY206). CCL5 content in supernatants from cells stimulated with HT-DNA and Poly(I:C) were analyzed using sandwich ELISA (RnD Systems, Cat#: DY278). […]
Functional type I IFN in supernatants from cells stimulated with 2′3′-cGAMP was quantified using a type I interferon reporter cell assay (HEK-Blue IFN-α/β) (Invivogen, Cat#: hkb-ifnab) according to manufacturer's guidelines. […] The concentration of type I IFN was determined from a standard curve of IFN-a (PBL Assay Science, Cat#: 11100-1). […]

[2] = test system: SW872; assay: Doxorubicin IC50 viability determination (CellTiter 96 AQueous One Solution Cell Proliferation Assay); format: cell-based; conditions: Homo sapiens, SW872, 48 h, 48 hrs of treatment, read-out: IC50 viability concentration
Protocol: Prior to analysing the immunological reponse to doxorubicin treatment (Sigma-Aldrich, Cat#: D1515-10 MG), and IC50 viability concentration was determined for both wt cells and electroporated cells (mock and STING+). A two-fold dilution of doxorubicin including 10 different dilutions ranging from 16 μM to 0.03125 μM was added to a cell culture and viability was determined using CellTiter 96 AQueous One Solution Cell Proliferation Assay (Promega, Cat#: G3580) after 48 hrs of treatment.
(§1) Wt, mock and STING+ cells were treated with IC50 values of doxorubicin in biological triplicates (IC50 for wt: 0.5 μM and IC50 for mock and STING+: 0.3 μM) and left for 48 hrs before harvest.

[3] = test system: STING; assay: Cytokine gene expression (qPCR) in STING-reactivated SW872 after doxorubicin treatment; format: cell-based, human; conditions: SW872 after CRISPRa targeting STING (sgRNA #4 + dCas9-VPR mRNA), doxorubicin at IC50, 48 hrs
Protocol: For each sample 500,000 cells were resuspended in PBS, spun down at 300 xG for 5 minutes at room temperature (RT) and resuspended in 17 μL opti-MEM (Gibco, Cat#: 31985070). 1.9 μL of dCas9-VPR mRNA (Horizon Discovery, Cat#: CAS12211) and 1 μg of sgRNA was added. The cell suspension was added to an electroporation strip and electroporated on a Lonza 4D nucleofector using pulse code CM138. Afterwards, the electroporation strip containing the cells was left for 3 minutes on the bench top to allow cells to reform. The samples were diluted in preheated DMEM complete and 60,000 wt cells and 120,000 mock and STING+ cells were seeded in a 12-well plate one day prior to doxorubicin treatment to allow cells to adhere.
as §1
RNA from cells was purified using NucleoSpin RNA for the isolation of total RNA (Macherey-Nagel, Cat#: 740984.250M) according to manufacturer's guidelines. cDNA was synthesized using iScript cDNA Synthesis Kit (Bio-Rad, Cat#: 1708891) according to manufacturer's guidelines using 400ng of RNA. Real-time PCR was carried out using 1 μL of 10 ng/μL cDNA in a total volume of 10 μL using KAPA SYBR FAST (Roche, Cat#: KK4611) and the following targets and primers: […]
Samples were run in biological triplicates and technical duplicates on a 384 well plate (Hounisen, Cat#: 72.1985.202). The analysis was performed using the LightCycler 480 software version LCS480 1.5.1.62(Roche).
The cancer cell line SW872 was electroporated with dCas9-VPR mRNA and either nothing (mock) or sgRNA #4 and after additional 24 hrs each cell condition was exposed to the anthracycline chemotherapy drug doxorubicin. Doxorubicin's mode-of-action is to increase DNA damage leakage and this has shown to induce a STING-dependent immune response in conjunction to the cellular toxicity is has on cancer cells.
Supernatants were collected 48 hrs after doxorubicin treatment and immune activation was assessed by qPCR (FIG. 8A-E).

[4] = test system: human STING gene; assay: CRISPR activation of STING in SW872, STING expression by immunoblotting and qPCR; format: cell-based; conditions: SW872, electroporated with dCas9-VPR mRNA, 48 hours
Description: To upregulate STING, CRISPR activation technique was used. Synthetic guideRNAs (sgRNAs) are used to guide a deactivated Cas9 (dCas9) to a site in the vicinity of the transcriptional start site of STING. Attached to the dCas9 are three transcription activators (VP64, Rta, p65; collectively termed VPR), which can activate transcription of the target gene. The dCas9-VPR is delivered as mRNA and is translated by the translation apparatus in the host cell.
To test the ability of the individual sgRNAs to upregulate STING expression, each sgRNA was tested individually as well as all 5 sgRNAs together in the human sarcoma cell line SW872 or HT1080. The sequence of the DNA binding part of the 5 sgRNAs were the following:
sgRNAs were purchased from Synthego and comprise 2′-O-Methyl at the three first and last bases as well as 3′ phosphorothioate bonds between the first three and last two bases.
dCas9-VPR mRNA (SEQ ID NO: 29 as produced by in vitro transcription) (or purchased from Horizon Discovery, Cat#: CAS12211) comprises full substitution of uridine with pseudouridine and cotranscriptional capping with CleanCap AG in a 1:4 ratio between GTP and CleanCap.
For each sample 500,000 cells were resuspended in PBS, spun down at 300 xg for 5 minutes at room temperature (RT) and resuspended in 17 μL opti-MEM (Gibco, Cat#: 31985070). 1.9 μL of dCas9-VPR mRNA (Horizon Discovery, Cat#: CAS12211) (SEQ ID NO: 29) and 1 μg of sgRNA (1 μg of each sgRNA in the sample with all 5 sgRNAs) were added. The cell suspensions were added to an electroporation strip and electroporated on a Lonza 4D nucleofector using pulse code CM138. Afterwards, the electroporation strip containing the cells were left for 3 minutes on the bench top to allow cells to reform. The samples were diluted in preheated DMEM complete medium and cells were seeded at 50-100.000 cells per well in a 24-well plate and left for various days before harvest. […]

Molecule: Nc1nc2c(ncn2[C@@H]2O[C@@H]3COP(=O)(O)O[C@H]4[C@@H](O)[C@H](n5cnc6c(N)ncnc65)O[C@@H]4COP(=O)(O)O[C@@H]2[C@@H]3O)c(=O)[nH]1 [2′3′-cGAMP, 2′,3′-cyclic GMP-AMP]
cell responsiveness (secretion levels of IFNb, CXCL10, IL6 or CCL5) ([1]; SW872, 20-24 hours of activation): not responding

IC50 ([2]; wt SW872 cells): 500 nM
Molecule: COc1cccc2c1C(=O)c1c(O)c3c(c(O)c1C2=O)C[C@@](O)(C(=O)CO)C[C@@H]3O[C@H]1C[C@H](N)[C@H](O)[C@H](C)O1 [doxorubicin]
IC50 ([2]; mock and STING+ (electroporated) SW872 cells): 300 nM
gene expression of CCL5 [3]: increased
gene expression of CXCL10 [3]: increased
gene expression of IFNb [3]: increased

Molecule: Poly(I:C)
cell responsiveness (secretion levels of IFNb, CXCL10, IL6 or CCL5) ([1]; all four cell lines (HT-1080, SW872, SW982, SK-LMS1), 20-24 hours of activation): responded

Molecule: sgRNA #4: sgRNA targeting human STING gene, DNA binding part CAGAAACCGGCAGGCUCUCU (listed as RNA, chemistry not fully specified)
STING expression (immunoblotting, qPCR) [4]: equally or better than the combination of all five sgRNAs
STING expression (immunoblotting, qPCR) ([4]; listed as SEQ ID NO: 4): highest activity
STING expression (immunoblotting, qPCR) ([4]; listed as sgRNA#4): highest expression level
